These results are taken from patent US10047115B2, “Cyclic dinucleotides useful for the treatment of inter alia cancer” (priority 2015, dated 2018).

Each structure is given as a SMILES string.

The test system of this assay is Female Balb/C mice. In words: Adjuvant activity in mice, HBsAg model, serum ELISA antibody titers. Conditions: for HBsAg-specific serum IgG: HBsAg administered IM with adjuvant; for Anti-HBsAg titers compared with the nonadjuvanted benchmark: mice vaccinated IM. For orientation: ELISA stands for enzyme-linked immunosorbent assay.

Experimental: This objective of this study was to evaluate the potential of STING agonists of the present invention to function as adjuvants in mice using the HBsAg model.
Female Balb/C Mice were Vaccinated IM
Vaccines were delivered intramuscularly two times at 21 day intervals, and sera were evaluated for systemic antibody responses. Spleens (3 mice/group) were collected for Luminex/ICS analysis.
Sera were harvested 14dp1 and 14dp2 vaccination. Serum was evaluated by ELISA for anti-HBsAg IgG, IgG1, and IgG2a titers.

For `Nc1nc2c(ncn2[C@@H]2O[C@@H]3COP(=O)(O)O[C@H]4[C@@H](O)[C@H](n5cnc6c(N)ncnc65)O[C@@H]4COP(=O)(O)O[C@@H]2[C@@H]3O)c(=O)[nH]1` [cGAMP, reference compound], the “HBsAg-specific serum IgG” value is reported as “high levels” and the “Anti-HBsAg titers compared with the nonadjuvanted benchmark” value is “significantly higher”.

Take `Nc1nc2c(ncn2[C@@H]2O[C@@H]3COP(=O)(O)O[C@H]4[C@@H](F)[C@H](n5cnc6c(N)ncnc65)O[C@@H]4COP(=O)(O)O[C@@H]2[C@@H]3O)c(=O)[nH]1` [Example 1, (1R,6R,8R,9R,10R,15R,17R,18R)-17-(2-Amino-6-oxo-6,9-dihydro-1H-purin-9-yl)-8-(6-amino-9H-purin-9-yl)-9-fluoro-3,12,18-trihydroxy-2,4,7,11,13,16-hexaoxa-3λ^5,12λ^5-diphosphatricyclo[13.2.1.0^6,10]octadecane-3,12-dione]: the “HBsAg-specific serum IgG” value is on record as “high levels” and the “Anti-HBsAg titers compared with the nonadjuvanted benchmark” value is on record as “significantly higher”. Also, the “HBsAg-specific IgG levels, dose response” value (four doses, IM) is “dose responsive”. Further, for the setting “relative to dose”, the “antibody titers compared with cGAMP” value is recorded as “no significant differences”.
